We go through two sequences from US20240228542A1, “LYTIC DOMAIN FUSION CONSTRUCTS, CHECKPOINT INHIBITORS, AND METHODS OF MAKING AND USING SAME” (A28 Therapeutics Inc., priority 2020, published 2024).

pIC50: −log10 of the molar value. Values joined by “and” are separate entries in the source; they are usually repeats but may differ in a detail not shown here. Equal values may be shown once. “Also recorded” adds a separate entry of the source.

In one assay the test system is MDA-MB-435S cells. In words: Time course of cytotoxicity in MDA-MB-435S cells (MTT). The format is cell-based, human. Particulars: for pIC50: MDA-MB 435S; for incubation time to maximal efficacy: MDA-MB-435S cells. An excerpt:
(§1) Membranes of non-cancerous cell lines are neutral and are resistant to cytolytic peptides, in contrast to cancer cell lines, which have a high phosphatidic acid content in their outer membrane.
(§2) The melanoma cell line studied was MDA-MB-435S (estrogen receptor alpha negative), breast cancer cell lines MCF-7 and T47D (estrogen receptor alpha positive), ovarian cancer cell lines (OVCAR-3 and SKOV-3), prostate cancer (LNCaP), the non-malignant breast epithelial cell line MCF-10A and the mouse fibroblast cell line NIH:3T3.
(§3) Cells were seeded into 96 well plates at a density of 10,000 cells/well. […] Controls contained USP saline or 0.1% TritonX-100™ as reference for 0 and 100% cell death, respectively. Incubations were terminated by removing the culture media after 2 minutes, 5 minutes, 15 minutes, 30 minutes, 1 hour, 2 hours, 6 hours, 24 and 48 hours. Cell viability was assessed through formazan conversion assay (MTT assay, (CellTiter 96 Aqueous One, Promega # G3582). Formazan conversion was determined using a BioRad Benchmark Plus microplate spectrophotometer dual wavelengths at 490/630 nm at room temperature).
(§4) Data were calculated as fraction of absorption in TritonX-100™ containing wells representing 100% cell death versus 0% cell death in saline containing wells. Cytotoxicity was determined as ICso using GraphPad Prism version 5.01 for Windows, GraphPad Software, San Diego California USA according to the program for sigmoidal dose response with variable slope using constraint values of 0 and 100%. 4 wells of each individual set of two 96 well plates were compared and analyzed. Statistical analysis for significance was determined by a two-tailed Student's T-test.

The subject of another assay is OVCAR-3 cells. The format is cell-based, human. As to conditions: for incubation time to maximal efficacy: OVCAR-3 cells.
Text: as §1, §2, §3, §4

The subject of another assay is NIH:3T3. It is filed as cell-based, mouse. Particulars: noncancerous cell line 3T3. How it is done: as §2, §3
Data were calculated as fraction of absorption in TritonX-100™ containing wells representing 100% cell death versus 0% cell death in saline containing wells. Cytotoxicity was determined as ICso using GraphPad Prism version 5.01 for Windows, GraphPad Software, San Diego California USA according to the program for sigmoidal dose response with variable slope using constraint values of 0 and 100%. 4 wells of each individual set of two 96 well plates were compared and analyzed. […]

Another assay relates to MDA-MB-435S xenograft. In words: MDA-MB-435S xenograft, minimal effective dose, once weekly. The format is in vivo, Nu/Nu mice. How it is done:
To determine the minimal effective dose necessary to reduce MDA-MB-435S xenograft weights in a single dose regimen, Nu/Nu female mice, outbred strain, age 5 weeks (Charles River), were injected (s.c.) into the interscapular region with a MDA-MB-435S (passage #249)/Matrigel suspension (2.4×10^6 cells/mouse) [Leuschner 2006].
Each group consisted of 16 mice, which were injected once a week for 3 weeks. A group of 16 mice was sacrificed at the time of treatment start to serve as baseline. Saline injections served as control groups. During the entire study tumor volumes were recorded twice weekly.
Treatment started on day 16 after tumor cell injection when the tumors were established and continued on days 23 and 30. All remaining mice were necropsied 37 days after tumor cell injection.
Treatment response was determined by tumor weights and tumor weight change at necropsy compared to saline controls and untargeted CLIP71 treatment. Primary tumors were collected, weighed and prepared for histological evaluation in formalin fixation with 10% PBS buffered formalin. Statistical evaluation of data sets were conducted in GraphPad Prizm 4 and significance calculated by Wilcoxon signed-rank test.

The subject of the next assay is OVCAR-3 xenograft. The assay can be described thus: OVCAR-3 ovarian cancer xenograft. It is filed as in vivo, Nu/Nu mice. Particulars: for tumor volume: CLIP71 2 mg/kg, cisplatinum 10 mg/kg. How it is done: In brief, Nu/Nu female mice, inbred strain, age 5 weeks (Harlan-Sprague Dawley) were injected subcutaneously with a NIH:OVCAR-3 cells/Matrigel suspension (4.6×10^6 cells/mouse). Treatment was started on day 33 after tumor cell injection when the tumors were established and continued on days 41 and 47. The doses for the 3 weekly injections were 0.02, 0.2 and 2 mg/kg body weight, given as a single bolus intravenous injection via lateral tail vein administered once a week for three weeks on days 33, 41 and 47. Necropsies were conducted on day 52. Data are presented as mean […]SEM. Arrows show dosing.
A group of 9 tumor bearing mice was sacrificed on day 33 and served as baseline group. All mice were necropsied 51-52 days after tumor cell injection. Tumor volumes and bodyweights were recorded twice weekly during the study, as well as overall veterinarian examination of mice was conducted.
Primary tumors, liver, kidney, pancreas, heart, lung, and spleen were collected, fixed in formalin and prepared for histological evaluation. Tumor weights were measured at necropsy, part of the tumors were frozen at −80° C. for LH/CG and LHRH receptor assay determination.
As a biomarker for drug activity, CA 125 was determined in serum, collected from each individual mouse at necropsy using a Enzyme Linked Immunoassay for quantitative determination of ovarian cancer antigen CA125 (Assay kit Genway, Biotech, Inc. San Diego, CA, Catalog #40-052-115009, #BC-1013 according to the manufacturer).
LHRH receptor levels were assessed from formalin fixed tumors. Quantitative immunoperoxidase image analysis was conducted with the Ventana Image Analysis System (VIAS) adjunctive computer assisted image analysis system functionally connected to an interactive microscope (Axio Imager). The quantitative analysis was conducted with the program for quantification of Her2/neu receptor that included morphometric and colorimetric analysis. Receptor status results were reported as percentage of cells showing positive staining of the LHRH receptors under the following criteria: 0 non-immunoreactive, 1+: 1-25% positive, 2+: 26-50% positive, 3+: 51-75% positive cells.

The mark [1] stands for this setting: MDA-MB-435S.luc, 1 × 3 wk, 22 d, minimal effective dose study.

In the case of “KFAKFAKKFAKFAKKFAK [Phor18, reference compound]”, the negative logarithm of the IC50 (pIC50) with MDA-MB-435S cells (24 hours) was 4.26; with MDA-MB-435S cells (48 hours), 5.52; in the assay with NIH:3T3 it was under 4.40. Moreover, the “incubation time to maximal efficacy” value in the assay with MDA-MB-435S cells and in the assay with OVCAR-3 cells was 24 h throughout. In addition, the “tumor volumes and tumor weights” value in the assay with MDA-MB-435S xenograft (CLIP71 plus LHRH 0.2/0.122 mg/kg) is on record as “did not decrease tumor weights”. The tumor weights result in the assay with OVCAR-3 xenograft (OVCAR-3 xenograft at necropsy) was “not effective in reducing tumor weights”. For the same sequence, the tumor volume entry in the assay with OVCAR-3 xenograft (OVCAR-3 xenograft) is given as “tumor growth was observed; also recorded: no reduction in tumor volume”.

In the case of “KFAKFAKKFAKFAKKFAKQHWSYGLRPG [Phor18-LHRH]”, the negative logarithm of the IC50 (pIC50) is 5.92 in the assay on MDA-MB-435S cells (0.5 hour); 6.22 with MDA-MB-435S cells (1 hour); 6.30 in the assay on OVCAR-3 cells (OVCAR-3 (p47), read-out: IC50 with increasing incubation time); under 5.00 in the assay with NIH:3T3. Further, the “incubation time to maximal efficacy” value with MDA-MB-435S cells was 1 h and 0.5 to 1 h; with OVCAR-3 cells, 1 h and 0.5 to 1 h. In addition, the “Median Tumor Weight vs Baseline p < 0.05 (lowest dose)” value with MDA-MB-435S xenograft (setting [1]) was determined as 2 µg/kg. The “Median Tumor Weight vs Saline P < 0.05 (lowest dose)” value in the assay with MDA-MB-435S xenograft (setting [1]) stood at 0.2 µg/kg. Further, the “Remarks / histology of tumors” value with MDA-MB-435S xenograft (Phor18-LHRH at doses as low as 0.0002 mg/kg, CLIP71/LHRH 0.2/0.122 mg/kg) is “significant necrosis”. In addition, the “lowest concentration with tumor volume reduction compared to baseline” value in the assay with OVCAR-3 xenograft (42 days after tumor cell injection, p<0.001) came out at 0.2 mg/kg bodyweight. In the assay with OVCAR-3 xenograft (OVCAR-3, 1 × 3 wk, 20 d), the “Median Tumor Weight vs Baseline p < 0.05 (doses)” value was 200 µg/kg. In addition, the “Remarks / histology of treated tumors” value in the assay on OVCAR-3 xenograft (OVCAR-3 xenograft) is “significant necrosis”. Also, the tumor volume result in the assay on OVCAR-3 xenograft (OVCAR-3 xenograft) is on record as “Tumor volumes decreased”. In addition, the “CA125 secretion (serum)” value in the assay with OVCAR-3 xenograft (greatest at 0.2 and 2 mg/kg (p<0.0002 vs saline)) is on record as “reduced”. The “reduction of LHRH receptor levels” value in the assay on OVCAR-3 xenograft (treated tumors, immunoperoxidase image analysis) is 1-2 score points.

As a reminder, the pIC50 is −log10 of the IC50, conventionally taken in molar units.
